Some targets named below: Carbonic anhydrase 2 (Homo sapiens, UniProt P00918); Carbonic anhydrase 9 (Homo sapiens, UniProt Q16790); Carbonic anhydrase 1 (Homo sapiens, UniProt P00915); Carbonic anhydrase 12 (Homo sapiens, UniProt O43570); Carbonic anhydrase 14 (Homo sapiens, UniProt Q9ULX7).
A further test concerns the target Carbonic anhydrase 7 (Homo sapiens, UniProt P43166). Put plainly: Inhibition of human carbonic anhydrase 7 preincubated for 15 mins by CO2 hydration stopped-flow assay.

Chain of Carbonic anhydrase 14 (Q9ULX7 whole entry): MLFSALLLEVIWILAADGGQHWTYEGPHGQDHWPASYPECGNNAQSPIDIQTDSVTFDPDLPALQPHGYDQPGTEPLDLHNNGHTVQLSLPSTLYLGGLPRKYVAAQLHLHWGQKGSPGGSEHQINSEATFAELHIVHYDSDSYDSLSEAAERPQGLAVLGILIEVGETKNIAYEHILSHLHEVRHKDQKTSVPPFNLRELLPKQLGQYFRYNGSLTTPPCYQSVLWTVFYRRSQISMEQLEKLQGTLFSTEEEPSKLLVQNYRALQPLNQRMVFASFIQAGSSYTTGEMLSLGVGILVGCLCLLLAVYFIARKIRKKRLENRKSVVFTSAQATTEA
Chain of Carbonic anhydrase 7 (P43166 whole entry): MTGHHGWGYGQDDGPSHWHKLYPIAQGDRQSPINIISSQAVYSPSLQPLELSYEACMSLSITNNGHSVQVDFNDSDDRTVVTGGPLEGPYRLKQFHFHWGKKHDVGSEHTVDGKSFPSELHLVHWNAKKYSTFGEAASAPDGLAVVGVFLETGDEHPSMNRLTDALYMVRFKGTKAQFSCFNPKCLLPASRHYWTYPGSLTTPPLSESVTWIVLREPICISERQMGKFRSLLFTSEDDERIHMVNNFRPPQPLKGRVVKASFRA
Chain of Carbonic anhydrase 12 (O43570 whole entry): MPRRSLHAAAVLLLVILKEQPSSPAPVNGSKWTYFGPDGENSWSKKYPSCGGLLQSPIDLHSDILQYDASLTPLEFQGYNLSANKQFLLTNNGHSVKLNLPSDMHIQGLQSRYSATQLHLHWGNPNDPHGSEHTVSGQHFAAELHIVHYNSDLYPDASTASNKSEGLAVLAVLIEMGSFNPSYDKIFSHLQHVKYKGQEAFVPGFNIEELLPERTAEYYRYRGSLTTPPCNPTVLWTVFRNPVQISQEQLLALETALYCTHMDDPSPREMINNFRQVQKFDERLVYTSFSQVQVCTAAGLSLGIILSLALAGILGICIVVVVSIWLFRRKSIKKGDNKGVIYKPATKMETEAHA
Chain of Carbonic anhydrase 1 (P00915 whole entry): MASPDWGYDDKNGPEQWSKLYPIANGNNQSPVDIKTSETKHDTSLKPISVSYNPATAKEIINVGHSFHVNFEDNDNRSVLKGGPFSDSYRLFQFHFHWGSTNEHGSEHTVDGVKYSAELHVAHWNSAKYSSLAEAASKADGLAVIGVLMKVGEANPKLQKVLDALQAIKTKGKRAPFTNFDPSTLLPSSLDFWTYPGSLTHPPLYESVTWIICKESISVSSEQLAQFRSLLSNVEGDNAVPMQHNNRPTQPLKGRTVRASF
Description for Carbonic anhydrase 14: Inhibition of human carbonic anhydrase 14 preincubated for 15 mins by CO2 hydration stopped-flow assay
Description for Carbonic anhydrase 2: Inhibition of human carbonic anhydrase 2 preincubated for 15 mins by CO2 hydration stopped-flow assay
Description for Carbonic anhydrase 9: Inhibition of human carbonic anhydrase 9 preincubated for 15 mins by CO2 hydration stopped-flow assay

With `CCOC(=O)c1cc(O)ccc1O`, the Ki at Carbonic anhydrase 2 came to 690 nM.

Regarding `CC(C)OC(=O)c1cc(O)ccc1O`, the Ki is 810 nM on Carbonic anhydrase 9 and 580 nM on Carbonic anhydrase 2.

With `COC(=O)c1c(O)cccc1O`, the Ki is 810 nM on Carbonic anhydrase 9 and 700 nM at Carbonic anhydrase 2.

Take `CCOC(=O)c1c(O)cccc1O`: the results for the Ki on Carbonic anhydrase 9 and at Carbonic anhydrase 2 were 780 nM and 560 nM, respectively.

In the case of `CC(C)OC(=O)c1c(O)cccc1O`, the Ki on Carbonic anhydrase 9 was 790 nM; at Carbonic anhydrase 2, 530 nM.

With `CC(C)OC(=O)c1ccc(O)c(O)c1`, the results for the Ki at Carbonic anhydrase 9 and at Carbonic anhydrase 2 were 800 nM and 420 nM, respectively.

Take `CC(C)OC(=O)c1cc(O)cc(O)c1`: the values for the Ki on Carbonic anhydrase 9 and on Carbonic anhydrase 2 were 900 nM and 700 nM, respectively.

For `O=C(O)c1cc(-c2c3ccc(=O)cc-3oc3cc(O)ccc23)ccc1NC(=S)NCCc1ccc(O)c(O)c1`, the Ki on Carbonic anhydrase 9 came to 6700 nM; at Carbonic anhydrase 2, 4400 nM.

Take `Cc1cc(C)[n+](CCc2ccccc2C)c(C)c1`: the Ki stood at 830 nM at Carbonic anhydrase 9 and 6800 nM on Carbonic anhydrase 2.

As to `Cc1cc(C)[n+](CCc2ccccc2-c2ccccc2)c(C)c1`, the Ki on Carbonic anhydrase 9 amounted to 710 nM; at Carbonic anhydrase 2, 4700 nM.

With `Nc1cc(O)ccc1Cl`, the values for the inhibition constant Ki on Carbonic anhydrase 9 and on Carbonic anhydrase 2 were 4700 nM and 4900 nM, respectively.

Regarding `Cc1cc(C)[n+](-c2cccc(O)c2)c(C)c1`, the Ki at Carbonic anhydrase 9 was determined as 680 nM; at Carbonic anhydrase 2, 320 nM.

As to `Cc1cc(C)[n+](-c2cc(O)ccc2Cl)c(C)c1`, the Ki on Carbonic anhydrase 9 was 700 nM; on Carbonic anhydrase 2, 490 nM.

On to `CC(C)OC(=O)c1ccc(O)cc1O`, for which the Ki stood at 310 nM at Carbonic anhydrase 9 and 510 nM at Carbonic anhydrase 2.

Turning to `CCOC(=O)c1cc(O)cc(O)c1`, the Ki on Carbonic anhydrase 9 was found to be 910 nM; on Carbonic anhydrase 2 it was 660 nM.

As to `O=C(O)c1c(O)cccc1O`, the Ki at Carbonic anhydrase 1 stood at 5700 nM; at Carbonic anhydrase 12, 7200 nM; on Carbonic anhydrase 9, 5900 nM; at Carbonic anhydrase 7, 6600 nM; on Carbonic anhydrase 2, 5200 nM; on Carbonic anhydrase 14, 6500 nM.

As for `CCOC(=O)c1ccc(O)cc1O`, the Ki at Carbonic anhydrase 9 came to 820 nM; on Carbonic anhydrase 2 it was 520 nM.

As to `CCOC(=O)c1ccc(O)c(O)c1`, the Ki on Carbonic anhydrase 9 amounted to 780 nM; at Carbonic anhydrase 2, 610 nM.

With `COc1ccc(OC)cc1` [1,4-DIMETHOXYBENZENE], the figures for the Ki at Carbonic anhydrase 7 and on Carbonic anhydrase 14 were 3880 nM and 6790 nM, respectively.

As for `O=C(O)c1ccc(O)cc1O` [2,4-DIHYDROXYBENZOIC ACID], the Ki turned out to be 5200 nM at Carbonic anhydrase 1; 7500 nM on Carbonic anhydrase 12; 68000 nM at Carbonic anhydrase 9; 72000 nM on Carbonic anhydrase 7; 4900 nM at Carbonic anhydrase 2; 70000 nM on Carbonic anhydrase 14.

Take `O=C(O)c1cc(O)cc(O)c1` [3,5-DIHYDROXYBENZOIC ACID]: the Ki came to 7170 nM at Carbonic anhydrase 7 and 650 nM on Carbonic anhydrase 14.

On to `Nc1cccc(O)c1` [3-AMINOPHENOL], for which the Ki was determined as 4900 nM on Carbonic anhydrase 1; 7700 nM on Carbonic anhydrase 12; 4900 nM on Carbonic anhydrase 9; 5900 nM at Carbonic anhydrase 7; 4700 nM at Carbonic anhydrase 2; 7200 nM on Carbonic anhydrase 14.

Turning to `CCOC(=O)/C=C/c1ccc(O)cc1` [ETHYL P-COUMARATE], the Ki was found to be 610 nM on Carbonic anhydrase 9 and 710 nM at Carbonic anhydrase 2.

With `CCOC(=O)c1ccc(O)cc1` [ETHYLPARABEN], the Ki on Carbonic anhydrase 1 was 7900 nM; at Carbonic anhydrase 12 it was 8600 nM; at Carbonic anhydrase 9 it was 8200 nM; at Carbonic anhydrase 7 it was 8700 nM; at Carbonic anhydrase 2 it was 4800 nM; on Carbonic anhydrase 14, 7700 nM.

Consider `O=C(O)c1cc(O)ccc1O` [GENTISIC ACID], for which the Ki on Carbonic anhydrase 1 was found to be 4200 nM; on Carbonic anhydrase 12 it was 7300 nM; at Carbonic anhydrase 9, 6600 nM; at Carbonic anhydrase 7, 68000 nM; at Carbonic anhydrase 14 it was 67000 nM.

As for `CC(C)OC(=O)/C=C/c1ccc(O)cc1` [ISOPROPYL 3-(4-HYDROXYPHENYL)ACRYLATE], the Ki on Carbonic anhydrase 1 worked out at 540 nM; at Carbonic anhydrase 12, 760 nM; at Carbonic anhydrase 9, 680 nM; at Carbonic anhydrase 7, 690 nM; at Carbonic anhydrase 2, 520 nM; on Carbonic anhydrase 14 it was 730 nM.

Take `CC(C)OC(=O)c1ccc(O)cc1` [ISOPROPYL 4-HYDROXYBENZOATE]: the Ki at Carbonic anhydrase 9 came to 7400 nM; at Carbonic anhydrase 2, 4400 nM.

Turning to `COC(=O)c1ccc(O)cc1O` [METHYL 2,4-DIHYDROXYBENZOATE], the Ki worked out at 830 nM at Carbonic anhydrase 1; 950 nM on Carbonic anhydrase 12; 890 nM on Carbonic anhydrase 9; 850 nM on Carbonic anhydrase 7; 760 nM at Carbonic anhydrase 2; 860 nM at Carbonic anhydrase 14.

As for `COC(=O)c1cc(O)ccc1O` [METHYL 2,5-DIHYDROXYBENZOATE], the Ki turned out to be 840 nM on Carbonic anhydrase 9 and 770 nM at Carbonic anhydrase 2.

On to `COC(=O)c1cc(O)cc(O)c1` [METHYL 3,5-DIHYDROXYBENZOATE], for which the values for the Ki at Carbonic anhydrase 9 and on Carbonic anhydrase 2 were 810 nM and 690 nM, respectively.

Turning to `COC(=O)/C=C/c1ccc(O)cc1` [METHYL P-HYDROXYCINNAMATE], the Ki came to 780 nM at Carbonic anhydrase 1; 810 nM at Carbonic anhydrase 12; 850 nM on Carbonic anhydrase 9; 820 nM on Carbonic anhydrase 7; 800 nM on Carbonic anhydrase 2; 830 nM on Carbonic anhydrase 14.

On to `COC(=O)c1ccc(O)c(O)c1` [METHYL PROTOCATECHUATE], for which the Ki on Carbonic anhydrase 9 came to 790 nM; at Carbonic anhydrase 2, 580 nM.

On to `COC(=O)c1ccc(O)cc1` [METHYLPARABEN], for which the inhibitory constant (Ki) on Carbonic anhydrase 1 stood at 2600 nM; on Carbonic anhydrase 12 it was 820 nM; on Carbonic anhydrase 9, 5500 nM; on Carbonic anhydrase 7, 780 nM; at Carbonic anhydrase 2, 3400 nM; at Carbonic anhydrase 14 it was 4100 nM.

Take `O=C(O)c1ccc(O)c(O)c1` [PROTOCATECHUIC ACID]: the Ki on Carbonic anhydrase 7 is 7870 nM; at Carbonic anhydrase 14 it was 690 nM.

For `COc1ccc(C(=O)O)cc1OC` [VERATRIC ACID], the Ki came out at 7150 nM at Carbonic anhydrase 7 and 740 nM at Carbonic anhydrase 14.

As usually defined, the Ki is the dissociation constant of the complex between target and ligand, obtained from inhibition or displacement.
